The values that follow come from patent US20050181376A1, “Antisense modulation of microsomal triglyceride transfer protein expression” (ISIS Pharmaceuticals, Inc., priority 2001, published 2005).

Strand notation (5' to 3'): a small letter for the sugar, then the base; units joined by * are phosphorothioate-linked, units joined directly phosphodiester-linked; [ ] holds rarer units or linkages, { } end groups; capitals alone tell only the bases. e = 2'-O-(2-methoxyethyl) (MOE); [5mC] = 5-methylcytosine; d = 2'-deoxy (DNA)

The subject of this series is mouse microsomal triglyceride transfer protein mRNA. Put plainly: Antisense inhibition of mouse microsomal triglyceride transfer protein mRNA levels in primary hepatocytes, quantitative real-time PCR. It is filed as cell-based. On the set-up: concentration or dose not given beside the values. The settings on record: averages from two experiments. The procedure:
Primary mouse hepatocytes were prepared from CD-1 mice purchased from Charles River Labs (Wilmington, Mass.) and were routinely cultured in Hepatocyte Attachment Media (Gibco) supplemented with 10% Fetal Bovine Serum (Gibco/Life Technologies, Gaithersburg, Md.), 250 nM dexamethasone (Sigma), and 10 nM bovine insulin (Sigma). Cells were seeded into 96-well plates (Falcon-Primaria #3872) at a density of 10000 cells/well for use in RT-PCR analysis.
Cells were harvested 16-24 hours after oligonucleotide treatment.
All cytidine residues are 5-methylcytidines. […] Data are averages from two experiments. If present, “N.D.” indicates “no data”.
A general note: In qPCR the cycle at which signal appears reflects the starting amount.
Consider “144505 (eA*eG*e[5mC]*e[5mC]*eT*dT*dG*dT*d[5mC]*d[5mC]*dA*dT*d[5mC]*dT*dG*e[5mC]*eA*eT*eG*e[5mC]; antisense) [compound 144505]”, for which the “% INHIB (inhibition of mouse microsomal triglyceride transfer protein mRNA levels)” value (“% INHIB” below) came to 24%.

For the substance “144506 (e[5mC]*eA*e[5mC]*eA*eT*d[5mC]*d[5mC]*dG*dG*d[5mC]*d[5mC]*dA*d[5mC]*dT*dA*eG*eG*e[5mC]*eT*e[5mC]; antisense) [compound 144506]”, the “% INHIB” value was 0%.

Turning to “144507 (eT*e[5mC]*eT*e[5mC]*eA*dG*dA*dG*dT*dT*d[5mC]*dT*dG*dT*dT*eG*eA*eT*eG*eG; antisense) [compound 144507]”, the “% INHIB” value is 0%.

“144508 (e[5mC]*eG*eT*e[5mC]*eA*dT*dA*dG*d[5mC]*dA*dT*dA*dT*d[5mC]*dG*eT*eT*e[5mC]*eT*eG; antisense) [compound 144508]”: the “% INHIB” value was found to be 0%.

As for “144509 (eA*e[5mC]*eT*eG*eT*dG*d[5mC]*dT*d[5mC]*dT*d[5mC]*dA*dG*dA*dG*eA*eG*e[5mC]*eA*eA; antisense) [compound 144509]”, the “% INHIB” value was 0%.

“144510 (eG*eG*eT*e[5mC]*eT*dT*d[5mC]*dT*d[5mC]*d[5mC]*dT*dG*dA*dA*dT*eA*eG*eG*eT*eT; antisense) [compound 144510]”: the “% INHIB” value is listed as 0%.

In the case of “ATTCTGACACAGCTTCCTGA (all phosphorothioate, sugars by position and methylation of C not given here; 2'-MOE wings and deoxy gap) [ISIS 144486, 2′-MOE gapmer phosphorothioate antisense oligonucleotide to mouse MTP]”, the “% INHIB” value was “at least 30%”.

For the substance “CACCTGCCACTTGCTTCCCG (all phosphorothioate, sugars by position and methylation of C not given here; 2'-MOE wings and deoxy gap) [ISIS 144479, 2′-MOE gapmer phosphorothioate antisense oligonucleotide to mouse MTP]”, the “% INHIB” value is “at least 30%”.

On to “CAGAATGCCAGAGCCAGAGT (all phosphorothioate, sugars by position and methylation of C not given here; 2'-MOE wings and deoxy gap) [ISIS 144495, 2′-MOE gapmer phosphorothioate antisense oligonucleotide to mouse MTP]”, for which the “% INHIB” value was “at least 30%”.

For “CAGCCTCAGCATACTTCAGA (all phosphorothioate, sugars by position and methylation of C not given here; 2'-MOE wings and deoxy gap) [ISIS 144488, 2′-MOE gapmer phosphorothioate antisense oligonucleotide to mouse MTP]”, the “% INHIB” value is reported as “at least 30%”.

Turning to “CCCAGCACCTGGTTTGCCGT (all phosphorothioate, sugars by position and methylation of C not given here; 2'-MOE wings and deoxy gap) [ISIS 144477, 2′-MOE gapmer phosphorothioate antisense oligonucleotide to mouse MTP]”, the “% INHIB” value is on record as “at least 30%”.

In the case of “CCCTGGTCTCTTCTGCAAGC (all phosphorothioate, sugars by position and methylation of C not given here; 2'-MOE wings and deoxy gap) [ISIS 144478, 2′-MOE gapmer phosphorothioate antisense oligonucleotide to mouse MTP]”, the “% INHIB” value was “at least 30%”.
